Earlier results in patent publication US8637551B2, “2-(1,2-benzisoxazol-3-yl)benzylamine derivatives” (Merck Sharp & Dohme B.V., priority 2009, dated 2014).

Assays:
[1] = test system: nerve injured myelinated DRG; settings: Yagi et al, 2000
[2] = test system: A-beta and A-delta fibres; settings: Lee et al 2005
[3] = test system: rat CFA model of inflammatory pain
[4] = test system: rat, mild thermal injury model
[5] = test system: Brennan model; settings: local administration to the sciatic nerve 4 h after surgery; Dalle & Eisenach 2005
[6] = test system: rat (Chung) model of neuropathic pain; settings: for anti-allodynic effects in the Chung model: clinically used reference drugs

SMILES: CCN(c1ccccc1)c1cc(=NC)n(C)c(C)n1.Cl [ZD 7288]
- spontaneous activity [1]: reduces spontaneous activity
- firing frequency of ectopic discharges [2]: reduced the firing frequency of ectopic discharges
- allodynia [3]: suppresses allodynia
- spontaneous pain [4]: blocks spontaneous pain
- mechanical allodynia [5]: attenuates mechanical allodynia
- reversal of mechanical allodynia ([6]; intraperitoneal, Chung/von Frey, Chaplan et al 2003): dose-dependently reverses mechanical allodynia

SMILES: CNCC[C@H](Oc1cccc2ccccc12)c1cccs1 [duloxetine]
- anti-allodynic effects in the Chung model [6]: anti-allodynic effects

SMILES: NCC1(CC(=O)O)CCCCC1 [gabapentin]
- anti-allodynic effects in the Chung model [6]: anti-allodynic effects

SMILES: CN1CC[C@]23c4c5ccc(O)c4O[C@H]2[C@@H](O)C=C[C@H]3[C@H]1C5 [morphine]
- anti-allodynic effects in the Chung model [6]: anti-allodynic effects
